Entries after “also recorded” stand apart in the source; their conditions may differ.
Legend:
[1] = test system: IB3-1 cells; assay: Treprostinil-induced [3H]cAMP accumulation in IB3-1 cells with or without PDE inhibitors; format: cell-based, human; settings: for accumulation of cAMP with PDE3 inhibitors: in experiments
Procedure: IB3-1 cells were plated on 6 well-plates (0.2*10^6 cells/well in FIG. 1; 0.4*10^6 cells in FIG. 2) in complete growth medium (LHC-8+5% FCS). The following day, the adenine nucleotide pool was metabolically labeled by incubation with [3H]adenine (1 μCi/well) in Dulbecco's Modified Eagle Medium (DMEM) containing adenosine deaminase (1 unit/ml) for 4 h. Thereafter the medium was replaced with fresh medium; the cells were stimulated by sole addition of Treprostinil (in logarithmically spaced concentrations ranging from 0.1 to 30 μM) or of Treprostinil in combination with the indicated concentrations of PDE-inhibitors. After an incubation of 30 min, the cells were lysed by the addition of perchloric acid. The formation of [3H]cAMP was determined by sequential chromatography on Dowex 50WX-4 and neutral alumina columns followed by liquid scintillation counting of the eluate. The assay was performed in triplicate. IB3-1 cells were seeded onto PDL-coated wells of 6-well plates (2 to 2.5*10^5 cells/well) in complete growth medium (LHC-8+5% FCS). On the following day, the cellular adenine nucleotide pool was metabolically labelled by incubation with [^3H]adenine (1 μCi/well) in Dulbecco's Modified Eagle Medium (DMEM) in the presence of adenosine deaminase (5 μg/ml) for 4 h. Subsequently, the medium was replaced with fresh DMEM and the formation of cAMP was stimulated by addition of 5 μM forskolin, a direct activator of the adenylyl cyclase, or 10 μM treprostinil in the absence and presence of different concentrations of the following phosphodiesterase (PDE) inhibitors: ibudilast (0.3-1000 μM), Ro-20-1724 (0.03-300 μM), roflumilast (1 nM-10 μM), dipyridamole (0.01-100 μM), aminone (1, 10, 100 μM), anagrelide (1, 10, 100 μM), enoximone (1, 10, 100 μM), milrinone (1, 10, 100 μM) and cilostazol (0.1 to 100 μM) for 20 min at 37° C. […] The formation of [^3H]cAMP was quantified by liquid scintillation counting.

[2] = aerosolised; patient with cystic fibrosis and secondary pulmonary hypertension; cited from earlier work
[3] = test system: IB3-1 cells; assay: Forskolin-triggered [3H]cAMP accumulation in IB3-1 cells with PDE inhibitors; format: cell-based, human; settings: 5 μM forskolin
Procedure: IB3-1 cells were seeded onto PDL-coated wells of 6-well plates (2 to 2.5*10^5 cells/well) in complete growth medium (LHC-8+5% FCS). On the following day, the cellular adenine nucleotide pool was metabolically labelled by incubation with [^3H]adenine (1 μCi/well) in Dulbecco's Modified Eagle Medium (DMEM) in the presence of adenosine deaminase (5 μg/ml) for 4 h. Subsequently, the medium was replaced with fresh DMEM and the formation of cAMP was stimulated by addition of 5 μM forskolin, a direct activator of the adenylyl cyclase, or 10 μM treprostinil in the absence and presence of different concentrations of the following phosphodiesterase (PDE) inhibitors: ibudilast (0.3-1000 μM), Ro-20-1724 (0.03-300 μM), roflumilast (1 nM-10 μM), dipyridamole (0.01-100 μM), aminone (1, 10, 100 μM), anagrelide (1, 10, 100 μM), enoximone (1, 10, 100 μM), milrinone (1, 10, 100 μM) and cilostazol (0.1 to 100 μM) for 20 min at 37° C. In some instances, the effect of these inhibitors on basal cAMP accumulation was examined by incubating cells in the absence of any additional stimulus with increasing concentrations of PDE-inhibitors (i.e., dipyridamole, ibudilast and Ro-20-1724 at 1, 10 and 100 μM; roflumilast at and 0.1, 1 and 10 μM of Roflumilast). Concentration-response curves for treprostinil were obtained by adding treprostinil (0.1 to 30 μM) alone or in combination with 100 μM Ro-20-1724, 100 μM ibudilast or 5 μM roflumilast. The reaction performed in triplicate was stopped by adding 2.5% perchloric acid together with 0.1 mM (unlabelled) cAMP. [^3H]cAMP was isolated by sequential chromatography on Dowex 50W-X4 and neutral alumina columns. The formation of [^3H]cAMP was quantified by liquid scintillation counting.

[4] = test system: cystic fibrosis transmembrane conductance regulator/Cl- channel (CFTR); assay: Whole cell patch clamp of treprostinil-induced Cl- currents through CFTR, Example 3; format: cell-based, human; settings: for effect on treprostinil-induced CFTR current of adding PDE4 inhibitor: added on top of treprostinil
Procedure: The following human bronchial epithelial cell lines were obtained through ATCC: BEAS-2B (ATCC CRL-9609), NuLi-1 (ATCC CRL-4011), IB3-1 (ATCC CRL-2777), CuFi-1 (ATCC CRL-4013). Cells were propagated using the culture conditions outlined in the ATCC recommendations, e.g., I3B-1 cells were maintained on dishes coated with fibronectin (10 μg/m) rat collagen I (30 μg/ml) and BSA 10 μg/mL) in LHC-8 medium (Gibco) containing 5% fetal calf serum (FCS) at 37° C. in a 5% CO2 humified atmosphere. BEAS-2B cells were maintained at 37° C. in a 5% CO2 humified atmosphere on dishes precoated with collagen IV (60 μg/ml in 0.25% acetic acid) in BEGM medium (Lonza); the GA-1000 (gentamycin-amphotericin B mix) provided with the BEGM kit was not added to the medium. The level of endogenous expression of CFTR was too low to obtain a reliable signal. Accordingly, BEAS-2B cells were transiently transfected with a plasmid driving the expression of human GFP-tagged wild type CFTR by using Lipofectamine Plus® (Invitrogen) according to the instructions of the manufacturer. Cells expressing this GFP-tagged CFTR were identified by fluorescence microscopy and subjected to patch clamp recordings as outlined below. The whole cell patch clamp technique was used for current recordings performed at 22±1.5° C. using an Axoclamp 200B patch clamp amplifier (Axon Instruments). Pipettes had resistances between 1 and 2 MO when filled with the recording pipette solution (composition: 110 mM CsCl, 5 mM EGTA, 2 mM MgCl2, 1 mM K2.ATP, 10 mM Hepes, pH adjusted to 7.2 with CsOH). Voltage-clamp protocols and data acquisition were performed with […] 6.0 software (Axon Instruments). Data were low-pass filtered at 2 kHz (-3 dB) and digitized at 10-20 kHz. Cells were continuously superfused with external solution (composition: 145 mM NaCl, 4.5 mM KCl, 2 mM CaCl2, 1 mM MgCl2, 5 mM glucose, 10 mM Hepes, pH adjusted to 7.4 with NaOH). When indicated, the external solution contained Treprostinil (10 μM) or forskolin (5 μM), switching between solutions was achieved by electronically controlled pressure valves.

[5] = test system: CFTR-wt; assay: Whole cell patch clamp of Cl- current in IB3-1 cells transiently expressing GFP-tagged wild type CFTR; format: cell-based, human
Procedure: The whole cell patch clamp technique was used for current recordings performed at 22±1.5° C. using an Axoclamp 200B patch clamp amplifier (Axon Instruments). Pipettes had resistances between 1 and 2 MΩ when filled with the recording pipette solution (composition: 110 mM CsCl, 5 mM EGTA, 2 mM MgCl2, 1 mM K2.ATP, 10 mM Hepes, pH adjusted to 7.2 with CsOH). […] Data were low-pass filtered at 2 kHz (-3 dB) and digitized at 10-20 kHz. Cells were continuously superfused with external solution (composition: 145 mM NaCl, 4.5 mM KCl, 2 mM CaCl2, 1 mM MgCl2, 5 mM glucose, 10 mM Hepes, pH adjusted to 7.4 with NaOH). When indicated, the external solution contained Treprostinil (10 μM) or forskolin (5 μM), switching between solutions was achieved by electronically controlled pressure valves. IB3-1 cells were grown on dishes (Nunc, 3.5 cm diameter) covered with fibronectin (10 μg/mL) rat collagen I (30 μg/mL) and BSA 10 μg/mL) in LHC-8 medium (Gibco) containing 5% fetal calf serum (FCS). Cells were transiently transfected with a plasmid driving the expression of human GFP-tagged wild type CFTR by using Lipofectamine Plus® (Invitrogen) according to the instructions of the manufacturer. […] A transiently transfected IB3-1 cell expressing GFP-tagged wild type CFTR was selected under fluorescent light and clamped to a holding potential at -40 mV. Depolarization was induced by a voltage step to +60 mV for 50 ms and the current amplitude was recorded. Wash-in of Treprostinil (10 μM final concentration, TP) was initiated at the time point 50 s and terminated at 125 s. Forskolin was washed in at 275 s and was removed at 375 s.

[6] = test system: human erythrocytes; settings: cited from earlier work
[7] = test system: rabbit erythrocytes; settings: cited from earlier work

SMILES: O=C1CN2Cc3c(ccc(Cl)c3Cl)N=C2N1 [Anagrelide]
- accumulation of cAMP with PDE3 inhibitors [1]: did not induce any accumulation of cAMP

SMILES: O=C1CCc2cc(OCCCCc3nnnn3C3CCCCC3)ccc2N1 [Cilostazol]
- accumulation of cAMP with PDE3 inhibitors [1]: did not induce any accumulation of cAMP

SMILES: CC#CCC(C)[C@H](O)/C=C/[C@@H]1[C@H]2C/C(=C/CCCC(=O)O)C[C@H]2C[C@H]1O (stereo partly drawn) [Iloprost, 5-{(E)-(1S,5S,6R,7R)-7-hydroxy-6-[(E)-(3S,4RS)-3-hydroxy-4-methyl-1-octen-6-inyl]-bi-cyclo[3.3.0]octan-3-ylidene}pentanoic acid]
- pulmonary artery pressure [2]: effective in lowering pulmonary artery pressure

SMILES: CCCCOc1cc(CC2CNC(=O)N2)ccc1OC (centres unmarked) [RO20-1724]
- enhancement of the cAMP accumulation triggered by forskolin [3]: substantially enhanced
- relative efficacy, forskolin-triggered cAMP accumulation ([3]; compared with roflumilast): more effective than roflumilast
- effect on treprostinil-induced CFTR current of adding PDE4 inhibitor [4]: additional increase of the current

SMILES: O=C(Nc1c(Cl)cncc1Cl)c1ccc(OC(F)F)c(OCC2CC2)c1 [Roflumilast, 3-(cyclopropylmethoxy)-N-(3,5-dichloropyridin-4-yl)-4-(difluoromethoxy)benzamide]
- enhancement of the cAMP accumulation triggered by forskolin [3]: substantially enhanced
- relative potency as inhibitor, forskolin-triggered cAMP accumulation [3]: most potent inhibitor
- effect on treprostinil-induced CFTR current of adding PDE4 inhibitor [4]: additional increase of the current

SMILES: CCCCC[C@H](O)CC[C@@H]1[C@H]2Cc3cccc(OCC(=O)[O-])c3C[C@H]2C[C@H]1O.[Na+] [Treprostinil, (1R,2R,3aS,9aS)-[[2,3,3a,4,9,9a-hexahydro-2-hydroxy-1-[(3S)-3-hydroxyoctyl]-1H-benz[f]inden-5-yl]oxy]acetic acid monosodium salt]
- activation of the current (CFTR) ([5]; 10 μM Treprostinil, depolarization from −40 mV holding potential to +60 mV, monosodium salt): robust activation; also recorded: can activate CFTR
- time for current to decay to basal after washout ([5]; 10 μM treprostinil): ~100 s
- receptor-mediated cAMP synthesis and ATP release [6]: stimulate
- activation of CFTR (outward current) ([4]; voltage jumps from −20 to −80 mV): sustained activation of CFTR
- receptor-mediated cAMP synthesis and ATP release [7]: stimulate

SMILES: OCCN(CCO)c1nc(N2CCCCC2)c2nc(N(CCO)CCO)nc(N3CCCCC3)c2n1 [dipyridamole]
- enhancement of the cAMP accumulation triggered by forskolin [3]: substantially enhanced
- relative potency as inhibitor, forskolin-triggered cAMP accumulation [3]: less potent inhibitor
- efficacy in treprostinil-triggered cAMP accumulation ([1]; 10 μM treprostinil): higher efficacy

Source: patent US9504663B2, “Composition for the treatment of cystic fibrosis” (SciPharm SaRL, priority 2011, dated 2016)
